Holding throughout (assay type): biochemical
In assay [1] the target is T1, MMP-1 (Homo sapiens, UniProt P03956).
T1 sequence (P03956 100-469): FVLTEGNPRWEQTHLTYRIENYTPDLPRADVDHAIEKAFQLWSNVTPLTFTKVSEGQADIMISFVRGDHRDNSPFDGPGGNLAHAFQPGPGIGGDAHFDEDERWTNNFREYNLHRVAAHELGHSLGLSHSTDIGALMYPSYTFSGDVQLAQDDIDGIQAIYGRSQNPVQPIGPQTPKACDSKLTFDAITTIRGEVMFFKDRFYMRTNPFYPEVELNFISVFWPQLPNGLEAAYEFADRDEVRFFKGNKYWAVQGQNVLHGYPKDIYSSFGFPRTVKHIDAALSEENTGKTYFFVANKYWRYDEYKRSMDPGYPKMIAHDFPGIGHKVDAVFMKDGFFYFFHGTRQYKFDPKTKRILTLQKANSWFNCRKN
Put plainly: MMP-1 inhibition, thiopeptide or fluorescent peptide substrate test procedure. The settings on record: for IC50: in vitro enzyme inhibition. As to the method:
(§1) Test Procedures for Measuring MMP-1, MMP-9, and MMP-13 Inhibition
(§2) These standard pharmacological test procedures are based on the cleavage of a thiopeptide substrates such as Ac-Pro-Leu-Gly(2-mercapto-4-methyl-pentanoyl)-Leu-Gly-OEt by the matrix metalloproteinases MMP-1, MMP-13 (collagenases) or MMP-9 (gelatinase), which results in the release of a substrate product that reacts calorimetrically with DTNB (5,5′-dithiobis(2-nitro-benzoic acid)). The enzyme activity is measured by the rate of the color increase. The thiopeptide substrate is made up fresh as a 20 mM stock in 100% DMSO and the DTNB is dissolved in 100% DMSO as a 100 mM stock and stored in the dark at room temperature. Both the substrate and DTNB are diluted together to 1 mM with substrate buffer (50 mM HEPES pH 7.5, 5 mM CaCl2) before use. The stock of enzyme is diluted with buffer (50 mM HEPES, pH 7.5, 5 mM CaCl2, 0.02% Brij) to the desired final concentration. The buffer, enzyme, vehicle or inhibitor, and DTNB/substrate are added in this order to a 96 well plate (total reaction volume of 200 μl) and the increase in color is monitored spectrophotometrically for 5 minutes at 405 nm on a plate reader and the increase in color over time is plotted as a linear line.
(§3) Alternatively, a fluorescent peptide substrate is used. In this test procedure, the peptide substrate contains a fluorescent group and a quenching group. Upon cleavage of the substrate by an MMP, the fluorescence that is generated is quantitated on the fluorescence plate reader. The assay is run in HCBC assay buffer (50 mM HEPES, pH 7.0, 5 mM Ca^+2, 0.02% Brij, 0.5% Cysteine), with human recombinant MMP-1, MMP-9, or MMP-13. The substrate is dissolved in methanol and stored frozen in 1 mM aliquots. For the assay, substrate and enzymes are diluted in HCBC buffer to the desired concentrations. Compounds are added to the 96 well plate containing enzyme and the reaction is started by the addition of substrate. The reaction is read (excitation 340 nm, emission 444 nm) for 10 min. and the increase in fluorescence over time is plotted as a linear line.
(§4) For either the thiopeptide or fluorescent peptide test procedures, the slope of the line is calculated and represents the reaction rate. The linearity of the reaction rate is confirmed (r^2>0.85). The mean (x±sem) of the control rate is calculated and compared for statistical significance (p<0.05) with drug-treated rates using Dunnett's multiple comparison test. Dose-response relationships can be generated using multiple doses of drug and IC50 values with 95% Cl are estimated using linear regression.

Assay [2] concerns the target MMP-13 (Homo sapiens, UniProt P45452). Put plainly: MMP-13 inhibition, thiopeptide or fluorescent peptide substrate test procedure. The settings on record: in vitro enzyme inhibition. The protocol: as §1, §2, §3, §4
The target of assay [3] is TNF-α converting enzyme (TACE) (Homo sapiens, UniProt P78536). Put plainly: TACE inhibition, fluorescent peptidyl substrate test procedure. The settings on record: in vitro enzyme inhibition. The protocol: Test Procedure for Measuring TACE Inhibition
Using 96-well black microtiter plates, each well receives a solution composed of 10 μL TACE (final concentration 1 μg/mL), 70 μL Tris buffer, pH 7.4 containing 10% glycerol (final concentration 10 mM), and 10 μL of test compound solution in DMSO (final concentration 1 μM, DMSO concentration <1%) and incubated for 10 minutes at room temperature. The reaction is initiated by addition of a fluorescent peptidyl substrate (final concentration 100 μM) to each well and then shaking on a shaker for 5 sec.
The reaction is read (excitation 340 nm, emission 420 nm) for 10 min. and the increase in fluorescence over time is plotted as a linear line. The slope of the line is calculated and represents the reaction rate.
The mean (x±sem) of the control rate is calculated and compared for statistical significance (p<0.05) with drug-treated rates using Dunnett's multiple comparison test.

Assay [4] concerns the target MMP-9 (Homo sapiens, UniProt P14780). Kind of assay: MMP-9 inhibition, thiopeptide or fluorescent peptide substrate test procedure. To be noted: in vitro enzyme inhibition. As to the method:
as §1, §2, §3, §4

SMILES strings stand for the structures.

MMP-9, sequence (P14780 94-707): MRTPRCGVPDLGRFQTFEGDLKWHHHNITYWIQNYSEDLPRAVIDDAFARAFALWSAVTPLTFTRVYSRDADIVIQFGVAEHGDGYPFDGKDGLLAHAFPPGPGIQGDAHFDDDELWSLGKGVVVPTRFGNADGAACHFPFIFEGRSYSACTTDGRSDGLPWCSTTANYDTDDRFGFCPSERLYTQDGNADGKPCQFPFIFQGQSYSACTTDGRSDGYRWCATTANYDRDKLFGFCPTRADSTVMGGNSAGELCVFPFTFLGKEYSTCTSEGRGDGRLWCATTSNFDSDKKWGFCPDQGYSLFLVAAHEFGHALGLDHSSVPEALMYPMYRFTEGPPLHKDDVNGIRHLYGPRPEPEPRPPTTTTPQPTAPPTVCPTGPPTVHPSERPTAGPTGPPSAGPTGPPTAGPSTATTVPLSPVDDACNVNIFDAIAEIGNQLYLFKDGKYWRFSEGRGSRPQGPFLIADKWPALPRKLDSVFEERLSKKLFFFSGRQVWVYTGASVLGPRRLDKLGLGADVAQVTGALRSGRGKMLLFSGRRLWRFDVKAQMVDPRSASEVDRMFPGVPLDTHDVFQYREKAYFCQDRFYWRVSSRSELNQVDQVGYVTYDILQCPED
TNF-α converting enzyme (TACE), sequence (P78536 215-824, species assumed): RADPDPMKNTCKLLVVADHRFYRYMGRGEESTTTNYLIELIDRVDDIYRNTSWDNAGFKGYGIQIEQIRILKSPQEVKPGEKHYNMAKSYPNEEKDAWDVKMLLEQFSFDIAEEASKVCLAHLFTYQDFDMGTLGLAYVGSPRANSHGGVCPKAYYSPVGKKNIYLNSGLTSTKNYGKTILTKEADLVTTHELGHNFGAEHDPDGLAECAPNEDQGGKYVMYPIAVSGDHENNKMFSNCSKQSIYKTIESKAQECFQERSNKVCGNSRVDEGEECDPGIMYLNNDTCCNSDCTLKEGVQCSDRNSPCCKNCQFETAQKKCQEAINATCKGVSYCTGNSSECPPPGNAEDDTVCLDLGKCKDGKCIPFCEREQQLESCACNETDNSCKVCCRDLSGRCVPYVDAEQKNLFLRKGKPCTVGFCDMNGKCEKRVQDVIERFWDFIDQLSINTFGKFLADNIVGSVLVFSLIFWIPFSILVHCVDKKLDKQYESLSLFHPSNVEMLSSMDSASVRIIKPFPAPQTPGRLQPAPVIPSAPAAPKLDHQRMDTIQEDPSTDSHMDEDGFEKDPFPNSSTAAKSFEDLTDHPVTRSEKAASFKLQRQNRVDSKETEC

As to `C=C=CCOc1ccc(S(=O)(=O)NC(C(=O)NO)C(C)C)cc1` (centres unmarked) [Example 13, 2-({[4-(2,3-Butadienyloxy)phenyl]sulfonyl}amino)-N-hydroxy-3-methylbutanamide], the IC50 in assay [1] was 2670 nM; in assay [2], 21 nM; in assay [3] it was 51 nM; in assay [4], 36 nM.
For the compound `C=C=CCOc1ccc(S(=O)(=O)N(C)C(C(=O)NO)C(C)C)cc1` (centres unmarked) [Example 16, 2-[{[4-(2,3-Butadienyloxy)phenyl]sulfonyl}(methyl)amino]-N-hydroxy-3-methylbutanamide], the 50% inhibitory concentration (IC50) amounted to 3 nM in assay [2] and 36 nM in assay [3].
Regarding `CC=C=CCOc1ccc(S(=O)(=O)NC(C(=O)NO)C(C)C)cc1` (centres unmarked) [Example 19, N-Hydroxy-3-methyl-2-({[4-(2,3-pentadienyloxy)phenyl]sulfonyl}amino)butanamide], the 50% inhibitory concentration (IC50) in assay [1] was determined as 8810 nM; in assay [2] it was 25 nM; in assay [3], 62 nM; in assay [4], 21 nM.
For the compound `CC=C=CCOc1ccc(S(=O)(=O)N(C)C(C(=O)NO)C(C)C)cc1` (centres unmarked) [Example 22, N-Hydroxy-3-methyl-2-(methyl{[4-(2,3-pentadienyloxy)phenyl]sulfonyl}amino)butanamide], the concentration for half-maximal inhibition (IC50) was 877 nM in assay [1], 6 nM in assay [2], 48 nM in assay [3] and 4 nM in assay [4].
Turning to `C=C=CCOc1ccc(S(=O)(=O)N2CCSC(C)(C)[C@@H]2C(=O)NO)cc1` [Example 26, (3S)-4-{[4-(2,3-Butadienyloxy)phenyl]sulfonyl}-N-hydroxy-2,2-dimethyl-3-thiomorpholinecarboxamide], the 50% inhibitory concentration (IC50) in assay [1] came to 50 nM; in assay [2] it was 4 nM; in assay [3], 116 nM.
Turning to `C=C=CCOc1ccc(S(=O)(=O)N2Cc3ccccc3N(C(C)=O)CC2C(=O)NO)cc1` (centres unmarked) [Example 45, 1-Acetyl-4-{[4-(2,3-butadienyloxy)phenyl]sulfonyl}-N-hydroxy-2,3,4,5-tetrahydro-1H-1,4-benzodiazepine-3-carboxamide], the IC50 in assay [1] stood at 2350 nM; in assay [2], 7 nM; in assay [3], 71 nM; in assay [4], 9 nM.
In the case of `C=C=CCOc1ccc(S(=O)(=O)N2Cc3ccccc3N(C(=O)c3ccccc3)CC2C(=O)NO)cc1` (centres unmarked) [Example 46, 1-Benzoyl-4-(4-buta-2,3-dienyloxy-benzenesulfonyl)-2,3,4,5-tetrahydro-1H-benzo[e][1,4]diazepine-3-carboxylic acid hydroxyamide], the half-maximal inhibitory concentration (IC50) in assay [1] was 675 nM; in assay [2], 4 nM.
Turning to `CC=C=CCOc1ccc(S(=O)(=O)N2Cc3ccccc3N(C(=O)c3ccccc3)CC2C(=O)NO)cc1` (centres unmarked) [Example 47, 1-Benzoyl-N-hydroxy-4-{[4-(2,3-pentadienyloxy)phenyl]sulfonyl}-2,3,4,5-tetrahydro-1H-1,4-benzodiazepine-3-carboxamide], the inhibition at 1 µM in assay [1] (1 μM, read-out: MMP-1 % (inhibition) at single concentration) stood at 32%. The IC50 was 5 nM in assay [2] and 1400 nM in assay [3].

Usually IC50 stands for the midpoint of a concentration-inhibition curve.

Values taken from US7282496B2, “Allenic aryl sulfonamide hydroxamic acids as matrix metalloproteinase and TACE inhibitors” (Wyeth Holdings Corporation, priority 2001, dated 2007).
